Reference: article PMC13313556, “Development and characterization of triazole-based WDR5 inhibitors for the treatment of glioblastoma” (JCI Insight, 2026)
Read-outs that look alike come from different tables or passages of the source.

Key:
[1] = Microsomal intrinsic clearance, human; assay type: in vitro ADME; conditions: for CLint scaled at 1 µM: pooled liver microsomes, human microsomes; for Pred CLhep (h): scaled predicted hepatic clearance, human
Procedure: (§1) SUPPLEMENTAL DMPK METHODS
(§2) All in vitro DMPK screening assays were performed at Q2 Solutions, Inc. (Indianapolis,
(§3) IN, USA). Microsomal Intrinsic Clearance: Test compounds (1 µM) were incubated
(§4) with 1 mg/mL of pooled liver microsomes in phosphate buffer at 37 °C. Samples were
(§5) taken at 0, 5, 10, 15, 30 and 45 min and analyzed by LC-MS. Testosterone was used as
(§6) the positive control. Two replicates were obtained and average CLint values are reported. […]

[2] = Microsomal intrinsic clearance, rat; assay type: in vitro ADME; conditions: for CLint scaled at 1 µM: pooled liver microsomes, rat microsomes; for Pred CLhep (r): scaled predicted hepatic clearance, rat
Procedure: as §1, §2, §3, §4, §5, §6

[3] = Plasma protein binding (equilibrium dialysis), human; assay type: in vitro ADME
Procedure: Plasma Protein and Brain Homogenate Binding: Plasma protein binding assays in human and rat plasma were performed using equilibrium dialysis method and a fast gradient elution LC-MS/MS to estimate the percent of compound which binds to protein over a 4.5 hour incubation period at 37 °C, while undergoing orbital shaking. Assay was performed using a HT dialysis micro equilibrium device using dialysis membrane strips. A time 0 sample was taken after protein matrix is created and samples were taken from […]
both the protein side and buffer side of the membrane after incubation and the parent compound was quantified. Brain homogenate binding was performed similarly as above using human brain homogenate, equilibrium dialysis, and LC-MS/MS methods. Fraction unbound is calculated by dividing the concentration of the buffer side by the concentration of the matrix side (plasma or brain). […]

[4] = In vivo intraperitoneal plasma:brain level (PBL) studies; set-up: species or system mice; conditions: for Kp: male
Procedure: In Vivo Intraperitoneal Plasma:Brain Level (PBL) Studies
Core (RMPC) at the Vanderbilt University Medical Center (VUMC) Metabolic Physiology Shared Resource Core (MPSR). The studies were performed according to guidelines […]
approved by the Institutional Animal Care and Use Committee (IACUC) of VUMC following the guidance of the Association for Assessment and Accreditation of Laboratory Animal Care (AAALAC). Male CD-1 mice (Charles River Laboratories, Wilmington, MA) were overnight fasted on the evening prior to study. On the morning of study mice were weighed and allowed to acclimate to the room for at least 30 minutes prior to dosing.
Food was returned 3 hr after intraperitoneal dosing. At time zero IP of test article was given (20% β-HPCD, 1-10 mg/mL with addition of 1N HCl per molar equivalent of test article, N=8 mice, two per timepoint). At 0.5, 1, 3, and 6 h post-dose, mice were placed into a plane of anesthesia using Isoflurane. A terminal blood sample was collected via cardiac puncture followed by immediate euthanasia and brain collection. Brain was washed with cold PBS or Saline, blotted dry on a piece of gauze, weighed, and flash frozen in liquid nitrogen. Whole blood was centrifuged at 5000 x g for 5 minutes and plasma was removed into a fresh tube for storage. All samples were stored at -80 °C until shipment on dry ice for bioanalysis at Q2 Solutions. […]
conducted at Medicilon Inc. DMPK (CRO, Shanghai) using a similar protocol as above using modified timepoints (5 min, 15 min, 30 min, 1, 3, and 8 h), male ICR mice, and a […]
cyclodextrin). The blood was taken via submandibular vein or other suitable vein, 0.03 mL/time point. Samples were placed in tubes containing K2-EDTA and stored on ice until centrifuged. The blood samples were centrifuged at 6800 x g for 6 minutes at 2-8°C within 1h after collection and stored frozen at -80°C. After blood sample collection, the brain was removed, rinsed with saline, dried with filter paper, placed into labeled EP tubes (1 tube/tissue/animal/time point, and frozen at -80°C prior to bioanalysis. The analytical […]
results were validated using a calibration curve to lower limit of quantification of 2 ng/mL for parent analyte with tolbutamide as an internal standard. […]

L0 CSCs = test: 7-day CTG viability assay (GI50, cross-titrations) in L0; assay type: cell-based; conditions: Homo sapiens; L0, 7-day CTG; pGI50 = −log10[GI50(M)]
Procedure: (§7) For GI50 determination, compounds were stamped in technical triplicate, while for synergy cross-titrations dose-response matrices were prepared in technical duplicate. Different CSC lines, grown in suspension as spheroids, were split with Accutase and seeded directly on top of the prestamped compounds (50 μL of NBMc and 700 cells/well). The outer 4 rows (A,B and O,P row IDs) and 4 columns (1,2 and 23,24 column IDs) were filled with 80 μL of PBS to minimize evaporation. Cells were incubated with compounds for 7 days at 37°C/5% CO2 prior to the addition of 25 μL/well Cell-Titer Glo (Promega) and luminescence quantification on a Revvity EnVision plate reader. […] For the cross-titrations of 2 compounds, synergy scores were calculated using the MuSyC webserver ([79]).

L1 CSCs = test: 7-day CTG viability assay (GI50, cross-titrations, irradiation) in L1; assay type: cell-based, human; conditions: for GI50: Homo sapiens; for log(GI50): L1 + RAD (2 Gy)
Procedure: as §7, with “([79]). […]” for “([79]).”
(§8) antagonist (p53 activator) RG7112 following either 0 Gy or 2 Gy irradiation. Mean values are presented from a single biological replicate conducted in technical triplicate. Follow- […]
(§9) Cell viability was quantified as described in the Materials and Methods four days post-irradiation (seven days total). The

L2 CSCs = test: 7-day CTG viability assay (GI50, cross-titrations, irradiation) in L2; assay type: cell-based, human; conditions: for GI50: Homo sapiens
Procedure: as §7, with “([79]). […]” for “([79]).”
as §8, §9

3832 CSCs = test: 7-day CTG viability assay (GI50, cross-titrations, irradiation) in 3832; assay type: cell-based, human
Procedure: as §7, with “([79]). […]” for “([79]).”
as §8, §9

[5] = human plasma, read-out: PPB % fu (h)
[6] = summary of Table 1, read-out: free fraction
[7] = CD-1 (C3TD343), ICR (C3TD078), mouse, brain, intraperitoneal, 100 mg/kg, 100 mg/kg i.p., mice, read-out: P:B
[8] = L1, 0 Gy, read-out: log(GI50) (converted)
[9] = L1, 7-day CTG, pGI50 = −log10[GI50(M)], read-out: pGI50 (converted)
[10] = L2, 0 Gy, read-out: log(GI50) (converted)
[11] = L2, 7-day CTG, pGI50 = −log10[GI50(M)], read-out: pGI50 (converted)
[12] = Homo sapiens, 3832 + RAD (2 Gy), read-out: log(GI50) (converted)
[13] = Homo sapiens, […], 3832, 7-day CTG, pGI50 = −log10[GI50(M)], read-out: pGI50 (converted)
[14] = Homo sapiens, 3832, 0 Gy, read-out: log(GI50) (converted)

Q: Which results are given for COc1cc(Cn2nnc3c2CCc2c(-c4cn(C)nc4C(F)(F)F)cc(Cn4ccnc4C)cc2-3)cc(OC)c1 [C3TD078]?
A: CLint scaled at 1 µM [1]: 1200 mL/min/kg; Pred CLhep (h) [1]: 20.6 mL/min/kg; CLint scaled at 1 µM [2]: 316 mL/min/kg; Pred CLhep (r) [2]: 63.1 mL/min/kg; fraction unbound at […] [3, 5]: 0.016; fraction unbound at […] [3, 6]: ~0.02; Kp [4, 7]: < 0.05; GI50 (L0 CSCs): 1.26e-06 M; GI50 (L1 CSCs; [8]): 5.01e-06 M; GI50 (L1 CSCs; [9]): 5.01e-06 M; log(GI50) (L1 CSCs): -5.3 M; GI50 (L2 CSCs; [10]): 5.01e-06 M; GI50 (L2 CSCs; [11]): 3.98e-06 M; GI50 (3832 CSCs; [12]): 1.26e-06 M; GI50 (3832 CSCs; [13]): 2e-06 M

Q: For COc1cc(Cn2nnc3c2CCc2c-3cc(Cn3ccnc3C)cc2C2CC2)ccc1F [C3TD343], which CLint scaled at 1 µM [1] is on record?
A: Its CLint scaled at 1 µM is 710 mL/min/kg.

Q: And the “Pred CLhep (h)” value [1]?
A: Its value is 20.3 mL/min/kg.

Q: What about the CLint scaled at 1 µM [2] of the same compound?
A: The CLint scaled at 1 µM was 378 mL/min/kg.

Q: What about the “Pred CLhep (r)” value [2] of the same compound?
A: The value was 64.1 mL/min/kg.

Q: What about the fraction unbound at […] [3, 5] of the same compound?
A: The fraction unbound at […] was 0.007.

Q: What about the fraction unbound at […] [3, 6] of the same compound?
A: Its fraction unbound at […] is roughly 0.02.

Q: And the “total brain AUC” value ([4]; 100 mg/kg i.p., mice)?
A: Its value is 2.9 µM·h.

Q: And the “total brain Cmax” value ([4]; 100 mg/kg i.p., mice)?
A: Its value is 2.4 µM.

Q: And the “duration of brain exposure” value ([4]; i.p., mice)?
A: Its value is “less than 4 hours”.

Q: And the Kp [4, 7]?
A: Its Kp is 0.25.

Q: What about the GI50 (L0 CSCs) of the same compound?
A: The GI50 was 5.5e-06 M.

Q: And the GI50 (L1 CSCs; [8])?
A: Its GI50 is 7.94e-06 M.

Q: And the GI50 (L1 CSCs; [9])?
A: The GI50 was 8.32e-06 M.

Q: What about the “log(GI50)” value (L1 CSCs) of the same compound?
A: Its value is -5.1 M.

Q: And the GI50 (L2 CSCs; L2 + RAD (2 Gy), read-out: log(GI50) (converted))?
A: Its GI50 is 7.94e-06 M.

Q: And the GI50 (L2 CSCs; [11])?
A: Its GI50 is 6.31e-06 M.

Q: And the GI50 (3832 CSCs; [12])?
A: Its GI50 is 3.16e-06 M.

Q: What about the GI50 (3832 CSCs; [14]) of the same compound?
A: Its GI50 is 3.16e-06 M.

Q: And the GI50 (3832 CSCs; [13])?
A: Its GI50 is 2.51e-06 M.

Q: For COc1cc(CN2CCc3c(cc(Cn4ccn(C)c4=N)cc3-c3ccc(F)cc3C)C2=O)cc(OC)c1 [C16, reference compound], which CLint scaled at 1 µM [1] is on record?
A: Its CLint scaled at 1 µM is 155 mL/min/kg.

Q: What about the “Pred CLhep (h)” value [1] of the same compound?
A: Its value is 18.3 mL/min/kg.

Q: What about the CLint scaled at 1 µM [2] of the same compound?
A: The CLint scaled at 1 µM was less than 9.2 mL/min/kg.

Q: And the “Pred CLhep (r)” value [2]?
A: The value was less than 14.7 mL/min/kg.

Q: And the fraction unbound at […] [3, 5]?
A: Its fraction unbound at […] is 0.003.

Q: What about the fraction unbound at […] ([3]; summary of Table 1, read-out: plasma protein binding) of the same compound?
A: The fraction unbound at […] was less than 0.01.

Q: What about the Cmax brain ([4]; 10 mg/kg IP, male mice) of the same compound?
A: The Cmax brain was 0.102 µM.

Q: And the AUC brain ([4]; 10 mg/kg IP, male mice, 6 hrs interval)?
A: The AUC brain was 0.357 µM·h.

Q: And the Tmax ([4]; CD-1, mouse, brain, 10 mg/kg IP, male mice, read-out: Tmax brain)?
A: The Tmax was 30 min.

Q: And the Cmax ([4]; CD-1, mouse, plasma, 10 mg/kg IP, male mice)?
A: Its Cmax is 14.2 µM.

Q: What about the AUC ([4]; CD-1, mouse, plasma, 10 mg/kg IP, male mice, 6 hrs interval) of the same compound?
A: The AUC was 11.9 µM·h.

Q: And the Tmax ([4]; CD-1, mouse, plasma, 10 mg/kg IP, male mice, read-out: Tmax plasma)?
A: Its Tmax is 30 min.

Q: And the Kp ([4]; CD-1, mouse, brain, ip, 10 mg/kg, C16 10 mg/kg IP, male mice, read-out: brain/plasma ratio P:B (AUC))?
A: The Kp was less than 0.05.

Q: What about the GI50 (L0 CSCs) of the same compound?
A: Its GI50 is 5.01e-07 M.

Q: What about the GI50 (L1 CSCs; [8]) of the same compound?
A: The GI50 was 1.26e-05 M.

Q: And the GI50 (L1 CSCs; [9])?
A: Its GI50 is 1.26e-05 M.

Q: And the “log(GI50)” value (L1 CSCs)?
A: The value was -4.9 M.

Q: And the GI50 (L2 CSCs; [10])?
A: The GI50 was 2e-06 M.

Q: And the GI50 (L2 CSCs; [11])?
A: The GI50 was 3.98e-06 M.

Q: And the “log(GI50)” value (L2 CSCs; L2 + RAD (2 Gy))?
A: The value was -5.7 M.

Q: And the “log(GI50)” value (3832 CSCs; 3832 + RAD (2 Gy))?
A: Its value is -6.0 M.

Q: What about the GI50 (3832 CSCs; [14]) of the same compound?
A: The GI50 was 1e-06 M.

Q: And the GI50 (3832 CSCs; Homo sapiens, 3832, 7-day CTG, pGI50 = −log10[GI50(M)], read-out: pGI50 (converted))?
A: Its GI50 is 8.32e-07 M.
